Experimental data published in paper PMC9502528, “Stability Study of Alpinia galanga Constituents and Investigation of Their Membrane Permeability by ChemGPS-NP and the Parallel Artificial Membrane Permeability Assay” (Pharmaceutics, 2022).
Like-named read-outs stand apart in the source and are kept apart here.

Assays:
[1] = Stability analyses in PBS (pH 7.4) at 37 °C for 4 h, UPLC-DAD; type: physicochemical; settings: for percentage difference between the initial and final concentrations: PBS pH 7.4, 37 °C, 4 h, 100 μM; for stability in aqueous media: aqueous media (PBS)
Description: The isolation of 8 compounds (compounds 1, 2, […], 5, 6, 7, 9, and 10) was carried out using flash chromatography and semi-preparative HPLC; the corresponding data is presented in the Supplementary Materials. For stability analyses, the stock solutions were prepared from the ethyl acetate extract (200 mg/mL) and from compounds 1, 2, 4, 5, 6, 7, 9, and 10 dissolved in dimethyl sulfoxide (DMSO) at the concentration of 10.0 mM. These were diluted 100-fold with PBS (Phosphate Buffer Saline; pH = 7.4). The samples were filtered through Phenex-RC 15 mm, 0.2 μm syringe filters (Gen-Lab Ltd., Budapest, Hungary). The solutions were incubated at 37 °C for 4 h; the decomposition was determined by UPLC-DAD. All experiments were performed in triplicates, on three consecutive days ([…]).
The eight isolated compounds (p-OH-benzaldehyde (1), trans-p-coumaryl-alcohol (2), p-coumaryl-aldehyde (4), galanganol A (5), galanganol B (6), trans-p-acetoxycinnamyl alcohol (7), 1′S-1′-acetoxychavicol acetate (9), and 1′S-1′-acetoxyeugenol acetate (10)) were identified by UHPLC-high-resolution Orbitrap® mass spectrometry (HR-MS) and by NMR spectroscopy; the corresponding data is presented in the Supplementary Materials, while Figure 3 depicts the structures of the isolated compounds. In order to answer the questions raised about the possible conversion and decomposition of the A. galanga constituents during the PAMPA-BBB experiment, investigation of the chemical stability of the isolated compounds was carried out in PBS medium (pH 7.4) at 37 °C for 4 h. For the analysis of the samples acquired in the stability experiments, the aforementioned UHPLC-DAD method that had previously been validated for linearity, precision, and accuracy was utilized (Tables S1 and S2).

[2] = PAMPA-BBB (parallel artificial membrane permeability assay, porcine polar brain lipid extract); type: in vitro ADME
Description: The test solutions were prepared with DMSO at the concentration of 10.0 mM. These were diluted with PBS buffer pH = 7.4 (PAMPA-BBB) or pH = 6.8 (PAMPA-GI) to obtain the donor solutions (297.0 μL buffer + 3.0 μL DMSO solution) and filtered through Phenex-RC 15 mm, 0.2 μm syringe filters (Gen-Lab Ltd., Budapest, Hungary). A parallel artificial membrane permeability assay (PAMPA) system was used to determine the effective permeability (Pe) for the compounds of interest. Each well of the top plate (96-well polycarbonate-based filter donor plates (Multiscreen™-IP, MAIPN4510, pore size 0.45 μm; Millipore)) was coated with 5 μL of porcine polar brain lipid extract (PBLE) solution (8.0 mg PBLE + 4.0 mg cholesterol dissolved in 300.0 μL n-dodecane) for PAMPA-BBB; or with 5 μL of mixture of 8.0 mg phosphatidylcholine + 4.0 mg cholesterol dissolved in 300.0 μL n-dodecane for PAMPA-GI. Then, 150.0 μL of the filtrate was placed on the membrane. The bottom plate (96-well PTFE acceptor plates (Multiscreen Acceptor Plate, MSSACCEPTOR; Millipore)), was filled with 300.0 μL buffer solution (0.01 M PBS buffer, pH = 7.4). The donor and acceptor plates were fit, and then the sandwich system was incubated at 37 °C for 4 h in a Stat-Fax 2200 (Awareness Technology, Palm City, FL, USA). After the incubation, the PAMPA plates were separated and the compound concentrations in the donor (CD(t)) and acceptor (CA(t)) solutions, as well as in the donor solution at zero time point (CD(0)), were determined by UPLC-DAD. […] At iso-pH conditions (PAMPA-BBB), the effective permeability and the membrane retention of drugs were calculated by the following equation [21]:(1) Pe =−2.303/A(t−τSS)·(VA·VD/VA+VD)·lg[1−(VA+VD/(1−MR)·VD)×(CA(t)/CD(0))], where Pe is the effective permeability coefficient (cm/s), A is the filter area (0.24 cm^2), VD and VA are the volumes in the donor (0.15 cm^3) and acceptor phases (0.30 cm^3), t is the incubation time (s), τSS is the time (s) to reach steady-state (240 s), CD(t) is the concentration (mol/cm^3) of the compound in the donor phase at time t, CD(0) is the concentration (mol/cm^3) of the compound in the donor phase at time 0, and MR is the estimated membrane retention factor (the estimated mole fraction of solute lost to the membrane):(2) MR=1−CD(t)/CD(0)−VA/VDCA(t)/CD(0)
All experiments were performed in three triplicates on three consecutive days (n = 9).

[3] = PAMPA-GI of the A. galanga ethyl acetate extract; type: in vitro ADME; settings: donor PBS pH 6.8, 37 °C, 4 h, UHPLC-DAD
Description: The test solutions were prepared with DMSO at the concentration of 10.0 mM. These were diluted with PBS buffer pH = 7.4 (PAMPA-BBB) or pH = 6.8 (PAMPA-GI) to obtain the donor solutions (297.0 μL buffer + 3.0 μL DMSO solution) and filtered through Phenex-RC 15 mm, 0.2 μm syringe filters (Gen-Lab Ltd., Budapest, Hungary). A parallel artificial membrane permeability assay (PAMPA) system was used to determine the effective permeability (Pe) for the compounds of interest. Each well of the top plate (96-well polycarbonate-based filter donor plates (Multiscreen™-IP, MAIPN4510, pore size 0.45 μm; Millipore)) was coated with 5 μL of porcine polar brain lipid extract (PBLE) solution (8.0 mg PBLE + 4.0 mg cholesterol dissolved in 300.0 μL n-dodecane) for PAMPA-BBB; or with 5 μL of mixture of 8.0 mg phosphatidylcholine + 4.0 mg cholesterol dissolved in 300.0 μL n-dodecane for PAMPA-GI. Then, 150.0 μL of the filtrate was placed on the membrane. The bottom plate (96-well PTFE acceptor plates (Multiscreen Acceptor Plate, MSSACCEPTOR; Millipore)), was filled with 300.0 μL buffer solution (0.01 M PBS buffer, pH = 7.4). […] After the incubation, the PAMPA plates were separated and the compound concentrations in the donor (CD(t)) and acceptor (CA(t)) solutions, as well as in the donor solution at zero time point (CD(0)), were determined by UPLC-DAD. […]

[4] = system: nitric oxide (NO) production in mouse peritoneal macrophages; design: method as in PMID 15930771; settings: cited from earlier work
[5] = design: method as in PMID 10564034; settings: 5% ethanol-containing aqueous solution at 60 °C; cited from earlier work
[6] = pig, PAMPA, pH 7.4, Table S4 sheet Galangal compounds, PAMPA-BBB, read-out: logPe (converted)
[7] = PAMPA-BBB, pH 7.4, 37 °C, 4 h, Pe in cm/s, n = 9

SMILES | percentage difference between the initial and final concentrations [1] [%] | stability in aqueous media [1] | Papp at 4 h, 100 µM [2, 6] [×10⁻⁶ cm/s] | nitric oxide (NO) production inhibitory activity [4] | PAMPA-BBB (blood–brain barrier permeability) ([2]; cutoff log Pe −6.0) | also measured
CC(=O)Oc1ccc(/C=C/CO)cc1 [Compound 7, trans-p-acetoxycinnamyl alcohol] | 8.04 | unstable | 31.6 |  |  | 
OC[C@H](C/C=C/c1ccc(O)cc1)[C@H](O)c1ccc(O)cc1 [Compound 6, galanganol B] |  |  | 0.776 | showed nitric oxide (NO) production inhibitory activities | − | detection in the acceptor solution (PAMPA-GI) [3]: except for compounds 5 and 6; Papp at 4 h, 100 µM ([2]; pig, PAMPA, pH 7.4, PAMPA-BBB, pH 7.4, 37 °C, 4 h, Pe in cm/s, n = 9, read-out: log Pe (converted)): 0.724 ×10⁻⁶ cm/s
C=C[C@H](OC(C)=O)c1ccc(OC(C)=O)cc1 [Compound 9, 1′S-1′-acetoxychavicol acetate] | 57.78 | unstable | 39.8 | showed nitric oxide (NO) production inhibitory activities |  | stability in aqueous ethanol [5]: instability
O=C/C=C/c1ccc(O)cc1 [Compound 4, p-coumaryl-aldehyde] |  |  |  | showed nitric oxide (NO) production inhibitory activities |  | PAMPA-BBB (blood–brain barrier permeability) ([2]; PAMPA): +; log Pe ([2]; pig, PAMPA, 4 h, 100 µM, pH 7.4): −5.25 ± 0.27; Papp at 4 h, 100 µM ([2]; pig, PAMPA, pH 7.4, logPe): 5.62 ×10⁻⁶ cm/s
OC/C=C\c1ccc(O)cc1 [Compound 3a, cis-p-coumaryl-alcohol] |  |  | 1.38 |  |  | 
CC(=O)Oc1ccc(/C=C\CO)cc1 [Compound 8a, cis-p-acetoxycinnamyl alcohol] |  |  | 31.6 |  |  | 
OC/C=C/c1ccc(O)cc1 [Compound 2, trans-p-coumaryl-alcohol] |  |  | 1.38 | showed nitric oxide (NO) production inhibitory activities | + | log Pe [2, 7]: −5.86 ± 0.23
OC[C@@H](C/C=C/c1ccc(O)cc1)[C@H](O)c1ccc(O)cc1 [Compound 5, galanganol A] |  |  | 0.776 |  | − | detection in the acceptor solution (PAMPA-GI) [3]: except for compounds 5 and 6
O=Cc1ccc(O)cc1 [Compound 1, p-OH-benzaldehyde] |  |  | 2.75 |  | + | log Pe [2, 7]: −5.56 ± 0.07
C=C[C@H](OC(C)=O)c1ccc(OC(C)=O)c(OC)c1 [Compound 10, 1′S-1′-acetoxyeugenol acetate] | 14.32 | unstable | 50.1 | showed nitric oxide (NO) production inhibitory activities |  | 
